Experimental data taken from patent US11166941B2, “Synergistic nutritional compositions for enhancing ATP efficiency” (CELAGENEX RESEARCH (INDIA) PVT. LTD., priority 2020, dated 2021).

Columns and labels:
HepG2 cells = experiment: Estimation of cellular respiration by measuring cellular ATP levels (kit method) in HepG2 cells; format: cell-based, Human; settings: for ATP enhancement fold / % ATP Enhancement: over control; for Cellular ATP Conc.: HepG2, 2 hours treatment
Procedure: The test substances were evaluated for their in vitro effect on cellular energy by measuring cellular ATP levels in human Hepatocytes (HepG2) cell line. In the given experimental conditions, treatment with the test substances improved cellular ATP levels in vitro [J Immunol Methods; 1986; 89: 271-277]; [Proc Nal Acad Sci USA; 2009; 106: 15651-15656].
For test substance ABC, the test substances were combined in the weight ratio of 1:0.05:0.01. A weight of about 10 mg of ABC was dissolved in 100 μl of DMSO and the volume was made up to 1 ml with DMEM-HG (Dulbecco's Modified Eagle Medium High Glucose). For individual test substances A, B and C, about 10 mg of all the test substances were weighed and separately dissolved with 100 μl of DMSO and volume was made up with DMEM-HG supplemented with 2% inactivated FBS to obtain a stock solution of 1 mg/ml concentration. The samples were further sterilized by 0.22 syringe filtration. Serial two-fold dilutions were prepared from the stock for carrying out further studies.
Cell line was cultured in DMEM-HG supplemented with 10% inactivated Fetal Bovine Serum (FBS), penicillin (100 IU/ml), streptomycin (100 μg/ml) and amphotericin B (5 μg/ml) in a humidified atmosphere of 5% CO2 at 37° C. until confluent. The cells were dissociated with TPVG solution (0.2% trypsin, 0.02% EDTA, 0.05% glucose in PBS). The stock cultures were grown in 25 cm^2 culture flasks and all experiments were carried out in 96 well microtitre plates (Tarsons India Pvt. Ltd., Kolkata, India).
HepG2 cells were trypsinized from stock culture flasks and the cell count was adjusted to 1.0×10^5 cells/ml to obtain a cell suspension that was seeded into a 6-well plate. After 24 hours, cell cultures achieved 70-80% confluency and were treated with different nontoxic concentrations of test substances. After 2 hours of treatment, the plate was washed with phosphate buffer saline. The cellular ATP level determination was performed according to the instructions given in the kit manual (SIGMA, #MAK190). At the end of the experiment, the optical density was read at 570 nm using microplate reader. From the absorbance values, the cellular ATP levels were estimated using kit protocol and the concentration of cellular ATP in treated groups were determined in comparison to the control groups.

[1] = system: HepG2 (Human Hepatocyte) cell line; experiment: In vitro cytotoxicity by MTT assay on HepG2 cell line; format: cell-based; settings: 72 hours; for IC50 / inhibition at 62.5 µg/mL / inhibition at 125 µg/mL / inhibition at 250 µg/mL / inhibition at 500 µg/mL / inhibition at 1000 µg/mL: Homo sapiens; for IC50: read-out: CTC 50
Procedure: The in vitro cytotoxicity was performed on HepG2 (Human Hepatocyte) cell line to find a non-toxic concentration of the test substances by MTT assay and the potential of test substances to increase the cellular ATP levels was evaluated by kit method. For test substance ABC, the test substances were combined in the weight ratio of 1:0.05:0.01. A weight of about 10 mg of ABC was dissolved in 100 μl of DMSO and the volume was made up to 1 ml with DMEM-HG (Dulbecco's Modified Eagle Medium High Glucose). For individual test substances A, B and C, about 10 mg of all the test substances were weighed and separately dissolved with 100 μl of DMSO and volume was made up with DMEM-HG supplemented with 2% inactivated FBS to obtain a stock solution of 1 mg/ml concentration. The samples were further sterilized by 0.22 syringe filtration. Serial two-fold dilutions were prepared from the stock for carrying out further studies. Cell line was cultured in DMEM-HG supplemented with 10% inactivated Fetal Bovine Serum (FBS), penicillin (100 IU/ml), streptomycin (100 μg/ml) and amphotericin B (5 μg/ml) in a humidified atmosphere of 5% CO2 at 37° C. until confluent. The cells were dissociated with TPVG solution (0.2% trypsin, 0.02% EDTA, 0.05% glucose in PBS). The stock cultures were grown in 25 cm^2 culture flasks and all experiments were carried out in 96 well microtitre plates (Tarsons India Pvt. Ltd., Kolkata, India). The monolayer cell culture was trypsinized and the cell count was adjusted to 1.0×10^5 cells/ml using DMEM-HG containing 10% FBS. To each well of the 96 well microtitre plate, 0.1 ml of the diluted cell suspension was added. After 24 hours, when a partial monolayer was formed, the supernatant was flicked off, the monolayer was washed once with medium and 100 μl of different concentrations of test substances were added. The plate was then incubated at 37° C. for 72 hours in a 5% CO2 atmosphere, and microscopic examination was carried out with observations being noted at a 24-hour interval. After 72 hours of incubation, the drug solutions in the wells were discarded and 50 μl of MTT in PBS was added to each well. The plate was gently shaken and incubated for 3 hours at 37° C. in a 5% CO2 atmosphere. The supernatant was removed and 100 μl of 2-propanol was added and the plate was gently shaken to solubilize the formed formazan. The absorbance was measured using a microplate reader at a wavelength of 540 nm. The percentage growth inhibition was calculated using the standard formula. The concentration of test substances needed to inhibit the growth of the cell by 50% i.e., CTC50 values were generated from the dose-response curves.

[2] = cell studies, background statement; cited from earlier work
[3] = concentration inhibiting cell growth by 50%

Row | Molecule | IC50 [1, 3] [µg/mL] | inhibition at 62.5 µg/mL ([1]; test conc. 62.5 μg/ml) [%] | inhibition at 125 µg/mL ([1]; test conc. 125 μg/ml) [%] | inhibition at 250 µg/mL ([1]; test conc. 250 μg/ml) [%] | inhibition at 500 µg/mL ([1]; test conc. 500 μg/ml) [%] | inhibition at 1000 µg/mL ([1]; test conc. 1000 μg/ml) [%] | enhancement of cellular ATP levels over the control (in words) (HepG2 cells; HepG2, 500 μg/ml) | % ATP Enhancement (HepG2 cells; HepG2, 500 μg/ml) [%] | ATP enhancement fold (HepG2 cells; HepG2, 500 μg/ml) [fold] | also measured
1 | OO [Composition H2O2, H2O2, reference compound] |  |  |  |  |  |  |  |  |  | ATP enhancement fold (HepG2 cells; HepG2, 20 μM): 0.67 fold; Cellular ATP Conc. (HepG2 cells; 20 μM): 1.97 ± 0.45 mM
2 | O=C(O)CCCC[C@@H]1SC[C@@H]2NC(=O)N[C@@H]21 [D-Biotin (B), Biotin] | > 1000 | 6.13 ± 3.48 | 25.1 ± 0.81 | 31.2 ± 1.17 | 42.9 ± 1.29 | 47.6 ± 1.45 | No significant enhancement | 22 | 1.11 | Cellular ATP Conc. (HepG2 cells; 500 μg/ml, listed as B): 6.05 ± 0.33 mM; Cellular ATP Conc. (HepG2 cells; 500 μg/ml, listed as Biotin (B)): 6.05 ± 0.33 mM
3 | Oc1ccc(C=Cc2cc(O)cc(O)c2)cc1 [Resveratrol, reference compound] |  |  |  |  |  |  |  |  |  | % ATP Enhancement (HepG2 cells; HepG2, 100 μg/ml): 13%; ATP enhancement fold (HepG2 cells; HepG2, 100 μg/ml): 1.09 fold; Cellular ATP Conc. (HepG2 cells; 100 μg/ml): 5.56 ± 0.37 mM
4 | O=C(O)CC(=O)C(=O)O [Stabilized Oxaloacetate (A), Oxaloacetic acid] | > 1000 | 10.7 ± 0.84 | 16.6 ± 0.82 | 23.8 ± 2.25 | 34.4 ± 2.2 | 40.4 ± 1.22 | No significant enhancement | 10 | 1.09 | Cellular ATP Conc. (HepG2 cells; 500 μg/ml): 5.42 ± 0.25 mM; Cellular ATP Conc. (HepG2 cells; 500 μg/ml, listed as Oxaloacetic acid (A)): 5.42 ± 0.25 mM
5 | O=C(O)CC(=O)C(=O)O [oxaloacetate] |  |  |  |  |  |  |  |  |  | increase muscular endurance [2]: up to 10%
6 | manganese (II) sulphate monohydrate [Manganese-Sulphate (C)] |  |  |  |  |  |  | No significant enhancement | 00 | 1.00 | CTC 50 [1, 3]: 558.91 ± 6.22 µg/mL; % Inhibition ([1]; test conc. 62.5 μg/ml): 30.00 ± 0.54%; % Inhibition ([1]; test conc. 125 μg/ml): 35.54 ± 0.47%; % Inhibition ([1]; test conc. 250 μg/ml): 42.44 ± 0.81%; % Inhibition ([1]; test conc. 500 μg/ml): 48.75 ± 0.18%; % Inhibition ([1]; test conc. 1000 μg/ml): 59.35 ± 0.63%; Cellular ATP Conc. (HepG2 cells; 500 μg/ml, listed as C, sulphate monohydrate): 4.92 ± 0.13 mM; Cellular ATP Conc. (HepG2 cells; 500 μg/ml, listed as Manganese sulphate (C), sulphate monohydrate): 4.92 ± 0.13 mM
